One assay has as its target LXRβ (Homo sapiens (Human), UniProt P55055). Description: In vitro assay LXRβ: PathHunter NHR CHO cells, LXRβ / Steroid Receptor Co-activator Peptide enzyme fragment complementation. It counts as cell-based. The following applies: PathHunter NHR CHO cells, full-length human LXRβ and SRCP, chemiluminescent signal; read-out: LXRβ PPI. The gist of the method:
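Co-activator recruitment measured by chemiluminescence after signal generation. The CHO line carries full-length human LXRβ tagged with ProLink and an SRCP–enzyme acceptor fusion in the nucleus; cells sat overnight at 37° C before testing, in charcoal-dextran filtered serum medium with 1% final vehicle.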

The target in a further assay is SREBP-2 (Homo sapiens (Human), UniProt Q12772). Description: In vitro assay SREBP-2: PathHunter U2OS SREBP-2 Nuclear Translocation Cell Line, U18666A-stimulated. It counts as cell-based. The settings on record: PathHunter U2OS SREBP-2 nuclear translocation cells, U18666A 10 μM, overnight (16 hours).

Chain of LXRβ (P55055 whole entry, the tested form may be a part): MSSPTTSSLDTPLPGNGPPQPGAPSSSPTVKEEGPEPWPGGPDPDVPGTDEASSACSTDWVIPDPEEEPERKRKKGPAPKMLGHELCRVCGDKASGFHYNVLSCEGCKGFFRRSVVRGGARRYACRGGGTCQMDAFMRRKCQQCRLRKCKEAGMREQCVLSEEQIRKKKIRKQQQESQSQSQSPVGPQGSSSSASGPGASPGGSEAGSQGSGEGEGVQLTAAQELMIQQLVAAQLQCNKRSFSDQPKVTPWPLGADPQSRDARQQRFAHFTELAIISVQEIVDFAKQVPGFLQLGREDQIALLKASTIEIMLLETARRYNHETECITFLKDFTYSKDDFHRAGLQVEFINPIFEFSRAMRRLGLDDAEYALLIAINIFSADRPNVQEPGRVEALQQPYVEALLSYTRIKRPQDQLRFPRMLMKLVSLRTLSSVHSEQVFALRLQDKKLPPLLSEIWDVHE

What is called IC50 is the concentration that gives 50% inhibition. Lower therefore signals higher potency. Regarding `C[C@H](CCC(=O)N1CCN(C(=O)C2CC2)C[C@@H]1C)[C@H]1CC[C@H]2[C@@H]3CC=C4C[C@@H](O)CC[C@]4(C)[C@H]3CC[C@]12C` [Example 651, (R)-1-((S)-4-(cyclopropanecarbonyl)-2-methylpiperazin-1-yl)-4-((3S,8S,9S,10R,13R,14S,17R)-3-hydroxy-10,13-dimethyl-2,3,4,7,8,9,10,11,12,13,14,15,16,17-tetradecahydro-1H-cyclopenta[a]phenanthren-17-yl)pentan-1-one], the EC50 at LXRβ was greater than 10 µM. The 50% inhibitory concentration (IC50) at SREBP-2 was less than 0.25 µM.
For `C[C@H](CCC(=O)N1CCN(C(=O)C(C)(C)O)[C@@H](C)C1)[C@H]1CC[C@H]2[C@@H]3CC=C4C[C@@H](O)CC[C@]4(C)[C@H]3CC[C@]12C` [Example 652, (4R)-4-[(1R,3aS,3bS,7S,9aR,9bS,11aR)-7-hydroxy-9a,11a-dimethyl-1H,2H,3H,3aH,3bH,4H,6H,7H,8H,9H,9aH,9bH,10H,11H, 11 aH-cyclopenta[a]phenanthren-1-yl]-1-[(3 S)-4-(2-hydroxy-2-methylpropanoyl)-3-methylpiperazin-1-yl]pentan-1-one], in that order: greater than 10 µM and less than 0.25 µM.
Regarding `C[C@H](CCC(=O)N1CCN(C(=O)C(C)(C)O)C[C@@H]1C)[C@H]1CC[C@H]2[C@@H]3CC=C4C[C@@H](O)CC[C@]4(C)[C@H]3CC[C@]12C` [Example 653, (R)-4-((3S,8S,9S,10R,13R,14S,17R)-3-hydroxy-10,13-dimethyl-2,3,4,7,8,9,10,11,12,13,14,15,16,17-tetradecahydro-1H-cyclopenta[a]phenanthren-17-yl)-1-((S)-4-(2-hydroxy-2-methylpropanoyl)-2-methylpiperazin-1-yl)pentan-1-one], the EC50 at LXRβ was greater than 10 µM. In addition, the IC50 at SREBP-2 was less than 0.25 µM.
Take `C[C@H](CCC(=O)N1CCN(C(=O)N2CCCC2)[C@@H](C)C1)[C@H]1CC[C@H]2[C@@H]3CC=C4C[C@@H](O)CC[C@]4(C)[C@H]3CC[C@]12C` [Example 654, (4R)-4-[(1R,3aS,3bS,7S,9aR,9bS,11aR)-7-hydroxy-9a,11a-dimethyl-1H,2H,3H,3aH,3bH,4H,6H,7H,8H,9H,9aH,9bH,10H,11H,11aH-cyclopenta[a]phenanthren-1-yl]-1-[(3 S)-3-methyl-4-(pyrrolidine-1-carbonyl)piperazin-1-yl]pentan-1-one]: the EC50 on LXRβ was greater than 10 µM. The same molecule had an IC50 on SREBP-2 of less than 0.25 µM.
For `C[C@H](CCC(=O)N1CCN(C(=O)N2CCCC2)C[C@@H]1C)[C@H]1CC[C@H]2[C@@H]3CC=C4C[C@@H](O)CC[C@]4(C)[C@H]3CC[C@]12C` [Example 655, (R)-4-((3S,8S,9S,10R,13R,14S,17R)-3-hydroxy-10,13-dimethyl-2,3,4,7,8,9,10,11,12,13,14,15,16,17-tetradecahydro-1H-cyclopenta[a]phenanthren-17-yl)-1-((S)-2-methyl-4-(pyrrolidine-1-carbonyl)piperazin-1-yl)pentan-1-one], in that order: greater than 10 µM and less than 0.25 µM.
For `C[C@H](CCC(=O)N1CCN(c2cnn(C)c2)[C@@H](C)C1)[C@H]1CC[C@H]2[C@@H]3CC=C4C[C@@H](O)CC[C@]4(C)[C@H]3CC[C@]12C` [Example 656, (R)-4-((3S,8S,9S,10R,13R,14S,17R)-3-hydroxy-10,13-dimethyl-2,3,4,7,8,9,10,11,12,13,14,15,16,17-tetradecahydro-1H-cyclopenta[a]phenanthren-17-yl)-1-((S)-3-methyl-4-(1-methyl-1H-pyrazol-4-yl)piperazin-1-yl)pentan-1-one] the same measures were greater than 10 µM and less than 0.25 µM.
Take `COc1ccnc(N2CCN(C(=O)CC[C@@H](C)[C@H]3CC[C@H]4[C@@H]5CC=C6C[C@@H](O)CC[C@]6(C)[C@H]5CC[C@]34C)CC2)c1` [Example 657, (R)-4-((3S,8S,9S,10R,13R,14S,17R)-3-hydroxy-10,13-dimethyl-2,3,4,7,8,9,10,11,12,13,14,15,16,17-tetradecahydro-1H-cyclopenta[a]phenanthren-17-yl)-1-(4-(4-methoxypyridin-2-yl)piperazin-1-yl)pentan-1-one]: on LXRβ, the EC50 was greater than 10 µM. At SREBP-2, this molecule registered an IC50 of less than 0.25 µM.
Turning to `Cc1ccnc(N2CCN(C(=O)CC[C@@H](C)[C@H]3CC[C@H]4[C@@H]5CC=C6C[C@@H](O)CC[C@]6(C)[C@H]5CC[C@]34C)CC2)c1` [Example 658, (R)-4-((3S,8S,9S,10R,13R,14S,17R)-3-hydroxy-10,13-dimethyl-2,3,4,7,8,9,10,11,12,13,14,15,16,17-tetradecahydro-1H-cyclopenta[a]phenanthren-17-yl)-1-(4-(4-methylpyridin-2-yl)piperazin-1-yl)pentan-1-one], the EC50 at LXRβ is greater than 10 µM. Besides, on SREBP-2, the IC50 is less than 0.25 µM.
For `COc1cccc(N2CCN(C(=O)CC[C@@H](C)[C@H]3CC[C@H]4[C@@H]5CC=C6C[C@@H](O)CC[C@]6(C)[C@H]5CC[C@]34C)CC2)n1` [Example 659, (R)-4-((3S,8S,9S,10R,13R,14S,17R)-3-hydroxy-10,13-dimethyl-2,3,4,7,8,9,10,11,12,13,14,15,16,17-tetradecahydro-1H-cyclopenta[a]phenanthren-17-yl)-1-(4-(6-methoxypyridin-2-yl)piperazin-1-yl)pentan-1-one], in that order: greater than 10 µM and less than 0.25 µM.
For `COc1cncc(N2CCN(C(=O)CC[C@@H](C)[C@H]3CC[C@H]4[C@@H]5CC=C6C[C@@H](O)CC[C@]6(C)[C@H]5CC[C@]34C)CC2)c1` [Example 660, (R)-4-((3S,8S,9S,10R,13R,14S,17R)-3-hydroxy-10,13-dimethyl-2,3,4,7,8,9,10,11,12,13,14,15,16,17-tetradecahydro-1H-cyclopenta[a]phenanthren-17-yl)-1-(4-(5-methoxypyridin-3-yl)piperazin-1-yl)pentan-1-one] the same measures were greater than 10 µM and less than 0.25 µM.
Take `Cc1cncc(N2CCN(C(=O)CC[C@@H](C)[C@H]3CC[C@H]4[C@@H]5CC=C6C[C@@H](O)CC[C@]6(C)[C@H]5CC[C@]34C)CC2)c1` [Example 661, (R)-4-((3S,8S,9S,10R,13R,14S,17R)-3-hydroxy-10,13-dimethyl-2,3,4,7,8,9,10,11,12,13,14,15,16,17-tetradecahydro-1H-cyclopenta[a]phenanthren-17-yl)-1-(4-(5-methylpyridin-3-yl)piperazin-1-yl)pentan-1-one]: the EC50 at LXRβ is greater than 10 µM. In addition, the IC50 on SREBP-2 is less than 0.25 µM.
For `COc1cncc(N2CCN(C(=O)CC[C@@H](C)[C@H]3CC[C@H]4[C@@H]5CC=C6C[C@@H](O)CC[C@]6(C)[C@H]5CC[C@]34C)CC2)n1` [Example 662, (R)-4-((3S,8S,9S,10R,13R,14S,17R)-3-hydroxy-10,13-dimethyl-2,3,4,7,8,9,10,11,12,13,14,15,16,17-tetradecahydro-1H-cyclopenta[a]phenanthren-17-yl)-1-(4-(6-methoxypyrazin-2-yl)piperazin-1-yl)pentan-1-one], in that order: greater than 10 µM and less than 0.25 µM.
For `C[C@H](CCC(=O)N1CCN(c2cc(N(C)C)ncn2)CC1)[C@H]1CC[C@H]2[C@@H]3CC=C4C[C@@H](O)CC[C@]4(C)[C@H]3CC[C@]12C` [Example 663, (R)-1-(4-(6-(dimethylamino)pyrimidin-4-yl)piperazin-1-yl)-4-((3S,8S,9S,10R,13R,14S,17R)-3-hydroxy-10,13-dimethyl-2,3,4,7,8,9,10,11,12,13,14,15,16,17-tetradecahydro-1H-cyclopenta[a]phenanthren-17-yl)pentan-1-one] the same measures were greater than 10 µM and less than 0.25 µM.
For `CC1CN(C(=O)N2CCN(C(=O)CC[C@@H](C)[C@H]3CC[C@H]4[C@@H]5CC=C6C[C@@H](O)CC[C@]6(C)[C@H]5CC[C@]34C)CC2)C1` [Example 664, (R)-4-((3S,8S,9S,10R,13R,14S,17R)-3-hydroxy-10,13-dimethyl-2,3,4,7,8,9,10,11,12,13,14,15,16,17-tetradecahydro-1H-cyclopenta[a]phenanthren-17-yl)-1-(4-(3-methylazetidine-1-carbonyl)piperazin-1-yl)pentan-1-one], at LXRβ, the EC50 was greater than 10 µM. In addition, the IC50 against SREBP-2 was less than 0.25 µM.
For `C[C@H](CCC(=O)N1CCN(C(=O)N2CC[C@@H]2C)CC1)[C@H]1CC[C@H]2[C@@H]3CC=C4C[C@@H](O)CC[C@]4(C)[C@H]3CC[C@]12C` [Example 665, (R)-4-((3S,8S,9S,10R,13R,14S,17R)-3-hydroxy-10,13-dimethyl-2,3,4,7,8,9,10,11,12,13,14,15,16,17-tetradecahydro-1H-cyclopenta[a]phenanthren-17-yl)-1-(4-((S)-2-methylazetidine-1-carbonyl)piperazin-1-yl)pentan-1-one], in that order: greater than 10 µM and less than 0.25 µM.
For `C[C@H](CCC(=O)N1CCN(C(=O)N2CCC[C@@H]2C)CC1)[C@H]1CC[C@H]2[C@@H]3CC=C4C[C@@H](O)CC[C@]4(C)[C@H]3CC[C@]12C` [Example 666, (R)-4-((3S,8S,9S,10R,13R,14S,17R)-3-hydroxy-10,13-dimethyl-2,3,4,7,8,9,10,11,12,13,14,15,16,17-tetradecahydro-1H-cyclopenta[a]phenanthren-17-yl)-1-(4-((S)-2-methylpyrrolidine-1-carbonyl)piperazin-1-yl)pentan-1-one] the same measures were greater than 10 µM and less than 0.25 µM.
In the case of `C[C@@H]1CCN(C(=O)N2CCN(C(=O)CC[C@@H](C)[C@H]3CC[C@H]4[C@@H]5CC=C6C[C@@H](O)CC[C@]6(C)[C@H]5CC[C@]34C)CC2)C1` [Example 667, (R)-4-((3S,8S,9S,10R,13R,14S,17R)-3-hydroxy-10,13-dimethyl-2,3,4,7,8,9,10,11,12,13,14,15,16,17-tetradecahydro-1H-cyclopenta[a]phenanthren-17-yl)-1-(4-((R)-3-methylpyrrolidine-1-carbonyl)piperazin-1-yl)pentan-1-one], on LXRβ, the EC50 is greater than 10 µM. This molecule also had an IC50 at SREBP-2 of less than 0.25 µM.

(Values after US20230340011A1 (Asteroid Therapeutics, priority 2022, published 2023).)
